US20260242390A1, “TOTAL SYNTHESES OF PORTIMINE A AND ANALOGUES THEREOF AS SMALL MOLECULE MODULATORS OF NMD3” (priority 2023, published 2026)

Key:
[1] = test system: GBM-A; assay: Broad cell line profiling, GBM-A; assay type: cell-based; details: Homo sapiens, Glioblastoma Cancer Stem Cell, read-out: PA IC50
Description: • A panel of human and mouse cancer cell types used to assess the breadth of PA activity, including multiple therapy resistant metastatic mesenchymal tumor cell lines and primary glioblastoma patient-derived metastatic stem/tumor initiating cell populations.

[2] = test system: MC38 colon carcinoma; assay: MC38 Syngeneic Tumor Xenograft Model; assay type: in vivo, mouse; details: 0.3 or 1.0 mg/kg, i.p.
Protocol: FIG. 4. Validation of NMD3 as target of Portimine A by Chemo-precipitation (ChP). Portimine A mouse pharmacokinetic properties and fast acting in vitro cell-based target engagement properties based on compound wash-out. (A) Pharmacokinetic studies of mouse intraperitoneal (i.p.) and oral (p.o.) administration for portimine (n=3). […] Impact of PA [0.3 or 1 mg/kg intraperitoneally] on MC38 tumor growth in WT mice (n=6). (C) Kaplan-Myer survival curve of WT MC38 tumor-bearing mice (n=6) after treatment with PA as described in (D). Mice were euthanized when tumor area exceeded 2000 mm^3. Statistical analysis was performed using ANOVA analysis followed by multiple comparisons test, * p≤0.05. Treatment condition: Jurkat (60 M per condition); PA-DA/ePA-DA concentration: 0.5 uM, PA or ePA: 5 uM; Incubate with probe with or without competitors (PA, ePA) for 30 min; UV irradiated for 20 min. (0.5 uM PA-DA add a no-UV condition); Standard pulldown & biotin-enrichment and western blot analysis (Elute condition: 2× sample buffer+500 uM biotin, boil for 20 mins); Primary antibody NMD3 (ProteinTech, 1:150), Actin (BioRad, 1:10000).
FIG. 9. […] (A) Systemic Portimine A in MC38 Syngeneic Tumor Xenograft Model; and (B) Systemic Portimine A in HT-1080 Tumor Xenograft Model. […]

C=CC1=C[C@@H]2[C@@H]3O[C@]4(CC[C@H](O4)C(C)C[C@@H](O)C3=O)CC(O)C3=NCC[C@@]32CC1 (some centres unmarked) [PA, portimine A] was tested, and the IC50 [1] was 2.6 nM and the “anti-tumor activity, MC38 colon carcinoma syngeneic model” value [2] was “Potent anti-tumor activity”.
